Measurements as given in patent US7612211B2, “Benzimidazole TRPV1 inhibitors” (Janssen Pharmaceutica N.V., priority 2006, dated 2009).

Biological target: T1, hTRPV1 (Homo sapiens, UniProt Q8NER1)
T1 construct: expressed in transfected cells; host or cells: HEK293
Assay: Human TRPV1 (hTRPV1) functional assay, FLIPR intracellular Ca2+, capsaicin challenge
Format: cell-based
Conditions: HEK293 cells expressing hTRPV1, capsaicin 0.030 μM challenge; for inhibition at 0.5 µM: test concentration of 0.5 μm, read-out: percent inhibition (symbol a); for IC50: derived from a variety of test concentrations, read-out: IC50 value (symbol c); for inhibition at 0.2 µM: test concentration of 0.2 μm, read-out: percent inhibition (symbol b)
Procedure, shortened: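 HEK293 cells expressing the channel, loaded with Calcium 3 dye, were exposed to compounds for 5 min before capsaicin 0.030 μM (~80% maximal). FLIPR Ca2+ read; IC50/EC50 from quadruplicate concentration-response, or percent inhibition at 0.5 μm or 0.2 μm.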

T1 sequence (Q8NER1 whole entry): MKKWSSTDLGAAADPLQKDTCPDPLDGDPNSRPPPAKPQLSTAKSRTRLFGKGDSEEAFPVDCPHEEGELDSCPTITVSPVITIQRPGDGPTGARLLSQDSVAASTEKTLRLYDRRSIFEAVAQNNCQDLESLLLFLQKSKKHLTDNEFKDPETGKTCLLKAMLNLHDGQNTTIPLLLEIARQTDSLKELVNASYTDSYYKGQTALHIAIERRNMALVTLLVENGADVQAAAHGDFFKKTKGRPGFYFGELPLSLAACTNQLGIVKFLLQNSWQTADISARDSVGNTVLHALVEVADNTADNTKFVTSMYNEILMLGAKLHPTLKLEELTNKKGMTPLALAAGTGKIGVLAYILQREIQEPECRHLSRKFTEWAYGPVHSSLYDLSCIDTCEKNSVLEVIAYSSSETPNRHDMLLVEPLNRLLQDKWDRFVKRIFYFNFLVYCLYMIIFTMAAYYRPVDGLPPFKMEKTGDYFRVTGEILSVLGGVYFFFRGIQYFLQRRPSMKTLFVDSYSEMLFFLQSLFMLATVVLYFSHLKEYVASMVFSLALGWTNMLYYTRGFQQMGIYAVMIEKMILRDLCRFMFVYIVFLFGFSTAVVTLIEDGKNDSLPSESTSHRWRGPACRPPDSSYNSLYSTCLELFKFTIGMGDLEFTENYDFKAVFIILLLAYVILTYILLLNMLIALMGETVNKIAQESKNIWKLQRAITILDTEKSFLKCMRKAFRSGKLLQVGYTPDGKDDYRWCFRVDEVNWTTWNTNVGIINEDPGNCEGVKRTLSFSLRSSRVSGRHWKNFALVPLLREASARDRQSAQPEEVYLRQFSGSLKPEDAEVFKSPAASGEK

SMILES	inhibition at 0.5 µM	IC50	inhibition at 0.2 µM
CC(=O)Nc1ccc(-c2ccc3[nH]c(COc4ccc(C(F)(F)F)cc4)nc3c2)cc1 [Cpd 115, N-{4-[2-(4-trifluoromethyl-phenoxymethyl)-1H-benzoimidazol-5-yl]-phenyl}-acetamide]	14%	–	–
OCc1ccccc1-c1ccc2[nH]c(COc3ccc(C(F)(F)F)cc3)nc2c1 [Cpd 116, {2-[2-(4-trifluoromethyl-phenoxymethyl)-1H-benzoimidazol-5-yl]-phenyl}-methanol]	99%	8.1 nM	–
OCc1cccc(-c2ccc3[nH]c(COc4ccc(C(F)(F)F)cc4)nc3c2)c1 [Cpd 117, {3-[2-(4-trifluoromethyl-phenoxymethyl)-1H-benzoimidazol-5-yl]-phenyl}-methanol]	13%	–	–
OCc1ccc(-c2ccc3[nH]c(COc4ccc(C(F)(F)F)cc4)nc3c2)cc1 [Cpd 118, {4-[2-(4-trifluoromethyl-phenoxymethyl)-1H-benzoimidazol-5-yl]-phenyl}-methanol]	2%	–	–
Oc1ccccc1-c1ccc2[nH]c(COc3ccc(C(F)(F)F)cc3)nc2c1 [Cpd 119, 2-[2-(4-trifluoromethyl-phenoxymethyl)-1H-benzoimidazol-5-yl]-phenol]	14%	–	–
Oc1cccc(-c2ccc3[nH]c(COc4ccc(C(F)(F)F)cc4)nc3c2)c1 [Cpd 120, 3-[2-(4-trifluoromethyl-phenoxymethyl)-1H-benzoimidazol-5-yl]-phenol]	15%	–	–
Oc1ccc(-c2ccc3[nH]c(COc4ccc(C(F)(F)F)cc4)nc3c2)cc1 [Cpd 121, 4-[2-(4-trifluoromethyl-phenoxymethyl)-1H-benzoimidazol-5-yl]-phenol]	9%	–	–
Nc1ccccc1-c1ccc2[nH]c(COc3ccc(C(F)(F)F)cc3)nc2c1 [Cpd 122, 2-[2-(4-trifluoromethyl-phenoxymethyl)-1H-benzoimidazol-5-yl]-phenylamine]	21%	–	–
Nc1cccc(-c2ccc3[nH]c(COc4ccc(C(F)(F)F)cc4)nc3c2)c1 [Cpd 123, 3-[2-(4-trifluoromethyl-phenoxymethyl)-1H-benzoimidazol-5-yl]-phenylamine]	7%	–	–
Nc1ccc(-c2ccc3[nH]c(COc4ccc(C(F)(F)F)cc4)nc3c2)cc1 [Cpd 124, 4-[2-(4-trifluoromethyl-phenoxymethyl)-1H-benzoimidazol-5-yl]-phenylamine]	12%	–	–
CNS(=O)(=O)c1ccc(-c2ccc3[nH]c(COc4ccc(C(F)(F)F)cc4)nc3c2)cc1 [Cpd 125, N-methyl-4-[2-(4-trifluoromethyl-phenoxymethyl)-1H-benzoimidazol-5-yl]-benzenesulfonamide]	11%	–	–
FC(F)(F)c1ccc(OCc2nc3cc(-c4ccccc4)ccc3[nH]2)cc1 [Cpd 126, 5-phenyl-2-(4-trifluoromethyl-phenoxymethyl)-1H-benzoimidazole]	4%	–	–
COC(=O)c1ccccc1-c1ccc2[nH]c(COc3ccc(C(F)(F)F)cc3)nc2c1 [Cpd 127, 2-[2-(4-trifluoromethyl-phenoxymethyl)-1H-benzoimidazol-5-yl]-benzoic acid methyl ester]	85%	24.3 nM	–
CN(C)S(=O)(=O)c1cccc(-c2ccc3[nH]c(COc4ccc(C(F)(F)F)cc4)nc3c2)c1 [Cpd 128, N,N-dimethyl-3-[2-(4-trifluoromethyl-phenoxymethyl)-1H-benzoimidazol-5-yl]-benzenesulfonamide]	13%	–	–
CN(C)S(=O)(=O)c1ccc(-c2ccc3[nH]c(COc4ccc(C(F)(F)F)cc4)nc3c2)cc1 [Cpd 129, N,N-dimethyl-4-[2-(4-trifluoromethyl-phenoxymethyl)-1H-benzoimidazol-5-yl]-benzenesulfonamide]	8%	–	–
COC(=O)c1cccc(-c2ccc3[nH]c(COc4ccc(C(F)(F)F)cc4)nc3c2)c1 [Cpd 130, 3-[2-(4-trifluoromethyl-phenoxymethyl)-1H-benzoimidazol-5-yl]-benzoic acid methyl ester]	11%	–	–
COC(=O)c1ccc(-c2ccc3[nH]c(COc4ccc(C(F)(F)F)cc4)nc3c2)cc1 [Cpd 131, 4-[2-(4-trifluoromethyl-phenoxymethyl)-1H-benzoimidazol-5-yl]-benzoic acid methyl ester]	5%	–	–
NS(=O)(=O)c1ccc(C(F)(F)F)cc1-c1ccc2[nH]c(COc3ccc(C(F)(F)F)cc3)nc2c1 [Cpd 132, 4-trifluoromethyl-2-[2-(4-trifluoromethyl-phenoxymethyl)-1H-benzoimidazol-5-yl]-benzenesulfonamide]	100%	85 nM	–

SMILES	inhibition at 0.5 µM	IC50	inhibition at 0.2 µM
NS(=O)(=O)c1cc(C(F)(F)F)ccc1-c1ccc2[nH]c(COc3ccc(C(F)(F)F)cc3)nc2c1 [Cpd 133, 5-trifluoromethyl-2-[2-(4-trifluoromethyl-phenoxymethyl)-1H-benzoimidazol-5-yl]-benzenesulfonamide]	92%	105 nM	–
NS(=O)(=O)c1ccc(F)cc1-c1ccc2[nH]c(COc3ccc(C(F)(F)F)cc3)nc2c1 [Cpd 134, 4-fluoro-2-[2-(4-trifluoromethyl-phenoxymethyl)-1H-benzoimidazol-5-yl]-benzenesulfonamide]	98%	16 nM	–
NS(=O)(=O)c1c(F)cc(F)cc1-c1ccc2[nH]c(COc3ccc(C(F)(F)F)cc3)nc2c1 [Cpd 135, 2,4-difluoro-6-[2-(4-trifluoromethyl-phenoxymethyl)-1H-benzoimidazol-5-yl]-benzenesulfonamide]	100%	47 nM	–
NS(=O)(=O)c1ccccc1-c1ccc2[nH]c(NCc3ccc(C(F)(F)F)cc3)nc2c1 [Cpd 136, 2-[2-(4-trifluoromethyl-benzylamino)-1H-benzoimidazol-5-yl]-benzenesulfonamide]	99%	68 nM	–
CN(Cc1ccc(C(F)(F)F)cc1)c1nc2cc(-c3ccccc3S(N)(=O)=O)ccc2[nH]1 [Cpd 137, 2-{2-[methyl-(4-trifluoromethyl-benzyl)-amino]-1H-benzoimidazol-5-yl}-benzenesulfonamide]	37%	–	–
NS(=O)(=O)c1ccccc1-c1ccc2[nH]c(OCc3ccc(C(F)(F)F)cc3)nc2c1 [Cpd 138, 2-[2-(4-trifluoromethyl-benzyloxy)-1H-benzoimidazol-5-yl]-benzenesulfonamide]	18%	–	–
NS(=O)(=O)c1ccccc1-c1ccc2[nH]c(C(F)(F)Oc3ccc(C(F)(F)F)cc3)nc2c1 [Cpd 139, 2-{2-[difluoro-(4-trifluoromethyl-phenoxy)-methyl]-1H-benzoimidazol-5-yl}-benzenesulfonamide]	99%	21 nM	–
CNS(=O)(=O)c1ccccc1-c1ccc2[nH]c(C(F)(F)Oc3ccc(C(F)(F)F)cc3)nc2c1 [Cpd 140, 2-{2-[difluoro-(4-trifluoromethyl-phenoxy)-methyl]-1H-benzoimidazol-5-yl}-N-methyl-benzenesulfonamide]	101%	17 nM	–
CN(C)S(=O)(=O)c1ccccc1-c1ccc2[nH]c(C(F)(F)Oc3ccc(C(F)(F)F)cc3)nc2c1 [Cpd 141, 2-{2-[difluoro-(4-trifluoromethyl-phenoxy)-methyl]-1H-benzoimidazol-5-yl}-N,N-dimethyl-benzenesulfonamide]	99%	83 nM	–
O=S(=O)(CCO)c1ccccc1-c1ccc2[nH]c(COc3ccc(C(F)(F)F)cc3)nc2c1 [Cpd 142, 2-{2-[2-(4-trifluoromethyl-phenoxymethyl)-1H-benzoimidazol-5-yl]-benzenesulfonyl}-ethanol]	–	8 nM	97%
CC(O)c1ccccc1-c1ccc2[nH]c(COc3ccc(C(F)(F)F)cc3)nc2c1 (centres unmarked) [Cpd 143, 1-{2-[2-(4-trifluoromethyl-phenoxymethyl)-1H-benzoimidazol-5-yl]-phenyl}-ethanol]	–	13 nM	–
CC(C)C(O)c1ccccc1-c1ccc2[nH]c(COc3ccc(C(F)(F)F)cc3)nc2c1 (centres unmarked) [Cpd 144, 2-methyl-1-{2-[2-(4-trifluoromethyl-phenoxymethyl)-1H-benzoimidazol-5-yl]-phenyl}-propan-1-ol]	–	114 nM	82%
CC(C)(C)C(O)c1ccccc1-c1ccc2[nH]c(COc3ccc(C(F)(F)F)cc3)nc2c1 (centres unmarked) [Cpd 145, 2,2-dimethyl-1-{2-[2-(4-trifluoromethyl-phenoxymethyl)-1H-benzoimidazol-5-yl]-phenyl}-propan-1-ol]	–	–	12%
CC(O)C(=O)c1ccccc1-c1ccc2[nH]c(COc3ccc(C(F)(F)F)cc3)nc2c1 (centres unmarked) [Cpd 146, 2-hydroxy-1-{2-[2-(4-trifluoromethyl-phenoxymethyl)-1H-benzoimidazol-5-yl]-phenyl}-propan-1-one]	–	–	72%
CC(C)(O)C(=O)c1ccccc1-c1ccc2[nH]c(COc3ccc(C(F)(F)F)cc3)nc2c1 [Cpd 147, 2-hydroxy-2-methyl-1-{2-[2-(4-trifluoromethyl-phenoxymethyl)-1H-benzoimidazol-5-yl]-phenyl}-propan-1-one]	–	7 nM	98%
CN(C)C(=O)C(O)c1ccccc1-c1ccc2[nH]c(COc3ccc(C(F)(F)F)cc3)nc2c1 (centres unmarked) [Cpd 148, N,N-dimethyl-2-hydroxy-2-{2-[2-(4-trifluoromethyl-phenoxymethyl)-1H-benzoimidazol-5-yl]-phenyl}-acetamide]	–	58 nM	89%
CON(C)C(=O)C(O)c1ccccc1-c1ccc2[nH]c(COc3ccc(C(F)(F)F)cc3)nc2c1 (centres unmarked) [Cpd 149, 2-hydroxy-N-methoxy-N-methyl-2-{2-[2-(4-trifluoromethyl-phenoxymethyl)-1H-benzoimidazol-5-yl]-phenyl}-acetamide]	–	46 nM	89%
